According to patent publication US8273712B2, “Promoting wound healing by administering a prostaglandin E and granulocyte-macrophage colony stimulating factor” (Medical Research Council, priority 2005, dated 2012):

Legend:
[1] = tested on: ML1 cells; assay: ELISA for measuring cytokine release; format: cell-based, human; conditions: monocyte
Experimental: Medium was removed from cells and analysed by ELISA. A monoclonal capture antibody was coated onto 96 well plates and culture medium was added each well. A standard curve was created with recombinant protein. After incubation and washing, a biotin-labelled monoclonal antibody was added. Following further incubation and washing, peroxidase-labelled streptavidin was added. After washing, a tetramethyl benzidine substrate was added and colour developed in proportion to the concentration of the cytokine in the original sample/standard. Colour was read using a plate photometer (Labsystems, Multiskan).
Paired antibodies and recombinant standards for CD14, CXCL8 (IL-8), and CCL2 (MCP-1) were obtained from R&D Systems Ltd, Abingdon UK and antibodies for IL-10 were obtained from Pharmingen (BD Bioscience, Erembodegem, Belgium), as shown below in Table 1.

[2] = molecular target: T1, 15-hydroxy prostaglandin dehydrogenase (Homo sapiens, UniProt P15428); conditions: cited from earlier work
T1 sequence (P15428 1-266): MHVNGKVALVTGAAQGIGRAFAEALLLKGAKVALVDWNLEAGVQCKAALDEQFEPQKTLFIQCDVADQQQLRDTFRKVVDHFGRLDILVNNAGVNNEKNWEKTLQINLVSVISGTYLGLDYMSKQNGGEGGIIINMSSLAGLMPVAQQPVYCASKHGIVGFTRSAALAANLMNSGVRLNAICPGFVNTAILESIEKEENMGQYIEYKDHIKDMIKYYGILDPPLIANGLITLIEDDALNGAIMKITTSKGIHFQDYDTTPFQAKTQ

[3] = tested on: Male Sprague Dawley rats, 2 cm circular dorsal wounds; assay: Rat model of wound healing; format: in vivo; conditions: for Wound area relative to control (significance, in words): day 3 post surgery; for Wound colour observations relative to control: days 3-5; for Consistent brown wound colour scores: days 9 and 10, red indicates a less healed wound than brown
Experimental: Male Sprague Dawley rats weighing between 250-300 grams were used as a wound healing model to assess the effects of PGE and GMCSF. 6 rats per treatment group were analysed to provide adequate data for statistical comparisons between control and treated groups. A total of 24 animals were used (4 groups of 6 rats). The four groups were control, 16,16-dimethyl PGE, GMCSF, and 16,16-dimethyl PGE+GMCSF groups. […] Two wounds were created on each animal, resulting in an “n” of 12 wounds per group.
Following acclimatisation (5-6 days), the rats were given a subcutaneous injection of Glycopyrolate (0.01 mg/kg at 0.02 mg/mL), dose volume 0.5 mL/kg, and anesthetised with an intraperitoneal injection of a Ketamine (40 mg/kg)/Xylazine (5 mg/kg) cocktail at 45 mg/mL (ket) and 5 mg/mL (xy), dose volume 0.88 mL/kg. Adequate depth of anesthesia was assessed by a toe pinch prior to beginning surgery, such that if any movement was noted, the animals were given more anaesthesia. […] Once anesthesia was accomplished, a 6×8 cm area was shaved in the dorsal area. Following shaving, a depilatory agent (Nair) was applied to the shaved area, and allowed to remain on the skin for approximately 5 minutes. After this time, the Nair was gently scraped from the skin with a blunt spatula and any residue was removed by rinsing the skin with deionised, distilled water and wiping with gauze sponges. The shaved area was then surgically prepared with chlorhexidine and alcohol scrub.
The rat was then placed on its abdomen and positioned in such a way that the limbs were relaxed and the spine was straight. […] The inside margins of the T were traced with a Sharpie pen, such that as upside-down “L” appeared on the right side of the rat and an upside-down and backward “L” appeared on the left side of the animal. These designated the cranial border of each wound, approximately 3 cm caudal to the scapular angles, and the medial border of each wound, approximately 0.25 cm from the midline.
To make the wound template, the rim of a cap from a Corning 15 ml conical tube was placed on the area and traced using a sterile surgical marker creating a 2 cm circle within one of the upside-down L's described above. An initial incision was made with a #10 scalpel blade at the medial edge of each circle. The incision was made through the panniculus carnosus into the areolar layer of the subcutaneous loose connective tissue. The excision was continued around the entire perimeter of the circle using forceps and Metzenbaum curved scissors while taking care to avoid damaging the deep fescial layers. The skin was removed to leave a circular wound. Where necessary, hemostasis was achieved by even compression with a sterile gauze pad.
The test agent or vehicle control, was administered at three different sites under the wound bed. Group assignments and dose levels for each treatment were as detailed in Table 8. Dose levels were based on body weight.
The wounds were not covered with any type of dressing. Approximately 30 minutes after recovery (determined by sternal recumbency and normal movement) the animals were given a subcutaneous injection of Buprenorphine (0.1 mg/kg) and transferred to individual cages with elevated stainless steel floors. Additional Buprenorphine was given every 6-8 hours as needed, then for the following 72 hours, 0.05 mg/kg was administered every 6-12 hours as needed.
Animals were anesthetised with isoflurane on days 3, 7, and 10 following surgery and the wounds were measured by caliper for width and length. The width and length measurements were then multiplied to calculate wound area and the mean wound area and standard error of the mean for each treatment determined. To test for any significant difference in wound healing relative to control treatment, a two-way analysis of variance (ANOVA) test was performed on the mean wound areas. In addition to wound area, wound healing was evaluated daily by observing wound colour. […]

[4] = tested on: PGE receptors; conditions: cited from earlier work
[5] = Day 3 post surgery, PGE analog 400 μg/kg and/or GMCSF 25 μg/kg per site under the wound bed
[6] = Day 7 post surgery, PGE analog 400 μg/kg and/or GMCSF 25 μg/kg per site
[7] = Day 10 post surgery, PGE analog 400 μg/kg and/or GMCSF 25 μg/kg per site

| Compound | IL-8 release induced by PGE and GMCSF [1] | Resistance to the main catabolic enzyme 15-hydroxy prostaglandin dehydrogenase [2] | Difference in wound area relative to control ([3]; Day 3) | Mean wound area [3, 5] [mm^2] | Difference in wound area relative to control ([3]; Day 7) | Mean wound area [3, 6] [mm^2] | Difference in wound area relative to control ([3]; Day 10) | Mean wound area [3, 7] [mm^2] | Wound area relative to control (significance, in words) [3] | Wound colour observations relative to control [3] | Consistent brown wound colour scores [3] | Activation of PGE receptors [4] |
| --- | --- | --- | --- | --- | --- | --- | --- | --- | --- | --- | --- | --- |
| COc1ccc(C2CNC(=O)C2)cc1OC1CCCC1 (stereo not drawn) [rolipram] | enhance IL-8 release |  |  |  |  |  |  |  |  |  |  |  |
| 16,16-dimethyl PGE [PGE analog] |  | resistant | −52.21 | 387.5 | −11.29 | 255.4 | −9.185 | 135.1 | No significant difference | more consistent brown scores relative to the control treatment | 2 | activate all known PGE receptors |
| GMCSF |  |  | −15.50 | 424.2 | −18.63 | 248.0 | 8.761 | 153.0 | No significant difference | more consistent brown scores relative to the control treatment | 3 |  |
